In PubChem BioAssay (NCI):
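Five concentrations, 48 hours, 96-well plates. TGI is the concentration that stops growth completely.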 Where a SMILES comes first, the peptide text is derived from it. The star is where a group is joined. Boc = CC(C)(C)OC(=O)*; OBn = c1ccc(CO*)cc1

Tests used:
Assay in all cases: NCI-60 cell line screen, 48 h
HCT-15 colon = test system: HCT-15 colon
ACHN renal = test system: ACHN renal
A498 renal = test system: A498 renal
M14 melanoma = test system: M14 melanoma
U251 CNS = test system: U251 CNS
IGROV1 ovarian = test system: IGROV1 ovarian
CCRF-CEM leukemia = test system: CCRF-CEM leukemia
SK-MEL-2 melanoma = test system: SK-MEL-2 melanoma
MOLT-4 leukemia = test system: MOLT-4 leukemia
MDA-MB-435 = test system: MDA-MB-435

Row | Structure (SMILES) | TGI (HCT-15 colon) [µM] | TGI (ACHN renal) [µM] | TGI (A498 renal) [µM] | TGI (M14 melanoma) [µM] | TGI (U251 CNS) [µM] | TGI (IGROV1 ovarian) [µM] | TGI (CCRF-CEM leukemia) [µM] | TGI (SK-MEL-2 melanoma) [µM] | TGI (MOLT-4 leukemia) [µM] | TGI (MDA-MB-435) [µM]
1 | CC(C)N(C)C(=O)C12C3C4C1C1C2C3C41C#N (stereo not given) | > 100 | > 100 | > 100 | > 100 | > 100 | > 100 | > 100 | > 100 | > 100 | > 100
2 | C=CC[C@@]1(C(=O)OC)[C@H](Sc2ccccc2)C1(C)C | > 100 | > 100 | > 100 | > 100 | > 100 | > 100 | > 100 | 64.1 | 34.3 | > 100
3 | CSc1cc(N)ccc1N=Nc1ccc(S(N)(=O)=O)cc1 | 62.9 | 93 | > 100 | > 100 | > 100 | 72.3 | 84.5 | 62.3 | > 100 | 97.4
4 | NC(N)=NS(=O)(=O)c1ccc(NC(=O)c2ccc3nc4ccccc4c(Nc4ccc(S(N)(=O)=O)cc4)c3c2)cc1 | > 100 | > 100 | > 100 | > 100 | > 100 | > 100 | > 100 | > 100 | > 100 | > 100
5 | Cc1ccc(-c2n[nH]c(=O)[nH]2)cc1[N+](=O)[O-] | > 100 | > 100 | > 100 | > 100 | > 100 | > 100 | > 100 | > 100 | > 100 | > 100
6 | Cc1ccc(N=Nc2c(C)c(C#N)c(=S)n(C3OC(CO)C(O)C(O)C3O)c2-c2ccccc2)cc1 (stereo not given) | 63.7 | > 100 | 33.2 | 30.4 | 30.8 | > 100 | 48.1 | 45.6 | 38.9 | 43.8
7 | CC(=O)OCC=C(CCl)CCC(Br)C(C)(C)Br (mixture of isomers) | > 10 | > 10 | > 10 | > 10 | > 10 | > 10 | > 10 | > 10 | > 10 | > 10
8 | CCO/C(O)=C(/C(=N)N1CCCC1)C(=O)Nc1cccc(C(F)(F)F)c1 | > 100 | > 100 | > 100 | > 100 | > 100 | > 100 | > 100 | > 100 | > 100 | > 100
9 | CC(=Nc1ccncc1)C(C)=Nc1ccncc1 | 27.5 | 27.5 | > 100 | 34.8 | 69.1 | 35.3 | 85.5 | 45.1 | 52.7 | 97.7
10 | C=C(C)C1CC=C(C)C2(C1)OCC(C)(C)C(C)O2 (stereo not given) | 33.9 | 40.9 | 28.9 | 47.1 | 31 | 48.2 | 83.4 | 34.2 | 51.2 | 48
11 | O=C1/C(=C2\Sc3c(ccc(Cl)c3Cl)C2=O)Sc2c1ccc(Cl)c2Cl | > 100 | > 100 | > 100 | > 100 | > 100 | > 100 | > 100 | > 100 | > 100 | > 100
12 | O=C1c2cccc3cccc(c23)C(=O)N1CCCNOCCONCCCN1C(=O)c2cccc3cccc(c23)C1=O | > 100 | > 100 | > 100 | > 100 | > 100 | > 100 | 91.6 | > 100 | > 100 | > 100
13 | CCOC(=O)C(/C=N\C(=S)Nc1ccc(OCC)cc1)=C(/O)c1ccccc1 | > 100 | > 100 | 88.4 | > 100 | > 100 | > 100 | > 100 | > 100 | > 100 | > 100
14 | c1ccc2c(c1)nc1n2CCSC1 | > 100 | > 100 | > 100 | > 100 | > 100 | > 100 | > 100 | > 100 | > 100 | > 100
15 | COc1cc(/C=C2\CCC(C)C3=C2NC(=S)NC3c2cc(OC)c(OC)c(OC)c2)cc(OC)c1OC (stereo not given) | > 100 | > 100 | > 100 | > 100 | > 100 | > 100 | > 100 | > 100 | 92.4 | > 100
16 | CCc1c(C)c(C#N)c(=S)n(C2OC(CO)C(O)C(O)C2O)c1C (stereo not given) | > 100 | > 100 | > 100 | > 100 | > 100 | > 100 | > 100 | > 100 | > 100 | > 100
17 | COc1cc(C2S/C(=C/c3ccccc3)C(=O)N2c2ccc(Cl)c(Cl)c2)cc(OC)c1OC (stereo not given) | > 100 | > 100 | > 82.4 | > 100 | > 100 | > 100 | > 100 | > 59.6 | > 100 | > 90.4
18 | C/C(O)=C/c1nc2ccc([N+](=O)[O-])cc2nc1/C=C(/C)O | > 100 | > 100 | 83.6 | > 100 | > 100 | > 100 | 61.9 | 96.8 | 72.2 | > 100

Row | Structure (SMILES) | TGI (HCT-15 colon) [µM] | TGI (ACHN renal) [µM] | TGI (A498 renal) [µM] | TGI (M14 melanoma) [µM] | TGI (U251 CNS) [µM] | TGI (IGROV1 ovarian) [µM] | TGI (CCRF-CEM leukemia) [µM] | TGI (SK-MEL-2 melanoma) [µM] | TGI (MOLT-4 leukemia) [µM] | TGI (MDA-MB-435) [µM]
19 | [N-]=[N+]=Nc1ccc(CNc2cc(=O)[nH]c(=O)[nH]2)cc1 | > 100 | > 100 | > 100 | > 100 | > 100 | > 100 | > 100 | > 100 | > 100 | > 80
20 | COc1ccc(OC)c2c1C1CCC(=O)N1CN2C(C)=O (stereo not given) | > 100 | > 100 | > 100 | > 100 | > 100 | > 100 | > 100 | > 100 | > 100 | > 100
21 | Cc1c(-c2ccccc2)c(C#N)c2nnc(C(N)=O)c(N)n12 | > 100 | > 100 | > 100 | > 100 | > 100 | > 100 | > 100 | > 100 | > 100 | > 100
22 | CC(C)(C)OC(=O)NC(Cc1ccccc1)C(=O)NC(Cc1ccccc1)C(=O)NCC(=O)OCc1ccccc1 (stereo not drawn) (Boc-Phe-Phe-Gly-OBn; configuration not given here) | 64.7 | > 100 | > 100 | 62.7 | 36.3 | 26.5 | 43.1 | > 100 | 56 | > 100
23 | CCOC(=O)C(CS)NC(=O)CCCCCCCC(=O)NC(CS)C(=O)OCC (stereo not given) | > 100 | > 100 | > 100 | > 100 | > 100 | > 100 | > 100 | > 100 | > 100 | > 100
24 | Cc1c(NC2(C)C(=O)N(/N=C/c3ccccc3)N=C2c2ccccc2)n[nH]c1-c1ccccc1 (stereo not given) | > 100 | > 100 | > 100 | > 100 | > 100 | > 100 | > 100 | > 100 | > 100 | > 100
25 | S=C(S)NCC1CCC(CNC(=S)S)CC1 (stereo not given) | 65 | 39.2 | > 100 | > 100 | 43 | 33.9 | > 100 | 58.3 | 65.2 | 61.4
26 | O=c1[nH]c2cc3[nH]c4ncccc4c(=O)c3cc2[nH]1 | > 10 | > 10 | > 10 | > 10 | > 10 | > 10 | > 10 | > 10 | > 10 | > 10
27 | CC1(C)Oc2ccc(NC(=O)CCC(N)C(=O)O)cc2O1 (stereo not given) | > 100 | > 100 | > 100 | > 100 | > 100 | > 100 | > 100 | > 100 | > 100 | > 100
28 | C[C@]12CC[C@@H]3c4ccc(OC(=O)c5ccccc5)cc4CC[C@H]3[C@@H]1CC[C@@H]2Oc1c2ccccc2nc2ccccc12 | 31.5 | > 50 | > 50 | 15.9 | 15.4 | 42.4 | 21.2 | > 50 | 26.7 | 12.9
29 | Cn1cnc2c(sc3nc4ccccc4n32)c1=N | > 100 | > 100 | > 100 | > 100 | > 100 | > 100 | > 100 | > 100 | > 100 | > 100
30 | CC(=O)c1cc2ccccc2n(O)c1=N | > 100 | > 100 | > 100 | > 100 | > 100 | > 100 | > 100 | > 100 | > 100 | > 100
31 | CC1(COS(=O)(=O)OCC2(C)COS(=O)(=O)OC2)COS(=O)(=O)OC1 | > 100 | > 74 | 97.2 | > 100 | > 100 | > 100 | > 64.4 | > 100 | > 81.5 | > 78.4
32 | O=c1[nH]c(N/N=C\C(O)C(O)C(O)CO)nc2ccccc12 (stereo not given) | > 100 | > 100 | > 100 | > 100 | > 100 | > 100 | > 100 | > 100 | > 100 | > 100
33 | CCCCOCn1c(=O)[nH]c(=O)c2cc(Br)ccc21 | > 100 | 42.1 | > 100 | > 100 | > 100 | > 100 | > 100 | > 100 | > 100 | > 100
34 | Cc1ccc(C(=O)/C(C#N)=C/Nc2c(C)n(C)n(-c3ccccc3)c2=O)cc1 | > 100 | > 100 | > 100 | > 100 | > 100 | > 100 | > 100 | > 100 | > 100 | > 100
35 | CSc1c(C#N)c2n(c3ccccc13)c1ccccc1[n+]2C | > 100 | 50.9 | 60 | > 100 | 73.7 | > 100 | 47.6 | 39.1 | 38.6 | 79.5
36 | O=c1[nH]c(Nc2cccc(Cl)c2)nc2nc[nH]c12 | > 100 | > 100 | > 100 | > 100 | > 100 | > 100 | > 100 | > 100 | > 100 | > 100
